Assay results as given in patent US11865157B2, “Compositions and methods of targeting cancer stem cells” (University of Houston System, priority 2016, dated 2024).
Numbered stars: 1 amine (or outer) side, 2 acyl side, 3 side chain; on linkers, the order of the positions; unused ones are H or OH. Square brackets hold non-standard residues; d marks the D form. Peptide text beside a SMILES is read from it. ξ: configuration not given here. Gly(N-piperonyl) = O=C(O)CNCc1ccc2c(c1)OCO2; X1 = CC(c1ccccc1)N(CC(=O)[*:2])[*:1]; Nlys = NCCCCNCC(=O)O; ξK = NCCCCC(N)C(=O)O; ξM = CSCCC(N)C(=O)O; Nme = COCCNCC(=O)O

How the values were obtained:
H358 cells = test: Colony formation assay of bead-bound, unbound and unsorted fractions; format: cell-based; conditions: 2 weeks of growth, crystal violet
Procedure: (§1) A colony formation assay was performed on the untreated H358 cells and PCS2-bound and PCS2-unbound fractions to further confirm that the cells bound by PCS2 were CSCs. About 500 cells from each of the three fractions were plated into […] wells and grown for 2 weeks. The resulting colonies were then stained with crystal violet.
as §1, with “300-500” for “500”, “cell group” for “the three fractions”, “weeks or until colonies were visible by eye.” for “weeks.”, “violet for approximately 5 minutes and colonies were counted using the MOESM software program, and confirmed though microscopic counting.” for “violet.”
It was determined that the presence of plectin contributes to colony formation and wound healing potential of H358 cells. Plectin antibody-coated magnetic-bead bound fractions form a higher number of colonies compared to unbound and unseparated fraction in the clonogenicity assay in H358 cells The clonogenecity after plectin knockdown was then tested in H358, H460, and H2073 cells (FIG. 25C, 25D). Knockdown of plectin decreases colony formation in H358, H460 and H2073 cells. Knockdown of plectin leads to a decrease in mobility and scratch healing in H358 cells. […]

[1] = system: lung cancer cell lines (HCC4017, H358, H366, H460, H1299, H2073, H1693, H1993, H1975); test: RT-qPCR of CSC markers and PLEC in PCS2-bead bound vs unbound fractions of lung cancer cell lines; format: cell-based
Procedure: Using the same basic approach, peptoid-bound and peptoid-unbound fractions were generated from the lung cancer cells lines HCC4017, H358, H366, H460 for the PCS2 compound, and the relative expression of CSC marker SOX2 was evaluated between each fraction.
To confirm the binding specificity of PCS2 to CSCs, CSCs isolated from H358 cells and normal mesenchymal stem cells (MSCs) were exposed to PCS2-carrying beads as described in Example 3, and then separated by magnet into peptoid-bound and peptoid-unbound fractions (FIG. 19A). […] To further evaluate PCS2 specificity towards CSCs, HCC4017, H460, H1299, H2073, H1693, H1993, and H1975 cells were exposed to PCS2-carrying beads, and then separated by magnet into peptoid-bound and peptoid-unbound fractions. RNA from both bound and unbound fractions was harvested and analyzed by RT-qPCR to determine the relative expression of several known CSC biomarkers in each fraction was assessed, including expression of ALDH1A3 (FIG. 19B), CD133 (FIG. 19C), CD44 (FIG. 19D), and SOX2 (FIG. 19E). CD44 and SOX2 expressions were high on PCS2-coated magnetic-bead bound fractions from the almost all cell lines having higher expression of CSC biomarkers compared to the unsorted or unbound fractions confirming that the capacity of PCS2 to bind to CSCs is not exclusive to H358 cells. The correlation to ALDH1A3 and CD133 were varied, which is typical due to the high heterogeneity of CSC biomarker expressions, and there are no 100% biomarker correlations exists.
Plectin expression was directed tested on PCS2-bound cells from H358, HCC4017, H460, H1299, H2073, H1693, H1993, H1975 cells by RT-QPCR (FIG. 22A). […] To determine if PCS2 and the plectin antibody compete for binding, the magnetic-bead binding assay was repeated in the presence of the plectin antibody. […] Since previous reports have shown cells to be sufficiently stable for further assays with plectin knock-down, plectin knockdown was conducted in H358, H1693, H1975 and H1993 cells using siRNA using the magnetic-bead binding assay described above. […] From these observations, it was concluded that plectin is the cell-surface marker that PCS2 is targeting.

[2] = HCC4017, H460, H1299, H2073, H1693, H1993, H1975, almost all cell lines

## COCCNCC(=O)N(CCCCN)CC(=O)N(CC(=O)N(CC(=O)N(CCCCN)CC(=O)NC(CCCCN)C(=O)N[C@H](CCCCN)C(=O)NC(CCSC)C(N)=O)C(C)c1ccccc1)Cc1ccc2c(c1)OCO2 (some centres unmarked) [PCS2] (H-[Nme][Nlys][Gly(N-piperonyl)][X1][Nlys][ξK][dK][ξM]-NH2)
H358 cells
  number of colonies from bead-bound fraction vs unbound or unsorted fractions: significantly higher number of colonies
[1]; H358, HCC4017, H460, H1299, H2073, H1693, H1993, H1975, RT-QPCR
  Plectin expression in PCS2-bound cells vs unbound cells: significantly higher
[1]; HCC4017, H358, H366, H460, vs unsorted or unbound fractions
  relative expression of SOX2 in PCS2-bead fractions: increased expression of SOX2
[1]; [2]
  CD44 expression in PCS2-coated magnetic-bead bound fractions: high
  SOX2 expression in PCS2-coated magnetic-bead bound fractions: high
